Values joined by “and” are separate entries in the source; they are usually repeats but may differ in a detail not shown here. Equal values may be shown once. Numbers after ± are expanded uncertainties.
Test: xn = mol fraction of the nth substance listed
Conditions: 101 kPa, Liquid, Pycnometric method

CCO [ethanol] + NC=O
x2 = 0
Conditions | mass density [kg/m3]
293.15 K | 789.46 ± 0.2
298.15 K | 785.2 ± 0.21
303.15 K | 780.75 ± 0.22
308.15 K | 776.42 ± 0.23
313.15 K | 771.81 ± 0.24
318.15 K | 767.38 ± 0.25

NC=O [formamide] + CC(O)CO
mass density [kg/m3]
Conditions | 293.15 K | 298.15 K | 303.15 K | 308.15 K | 313.15 K | 318.15 K
x1 = 0.0567 | 1038.29 ± 0.35 | 1034.56 ± 0.36 | 1030.82 ± 0.37 | 1027.12 ± 0.38 | 1023.41 ± 0.38 | 1019.67 ± 0.39
x1 = 0.1191 | 1040.52 ± 0.34 | 1036.78 ± 0.35 | 1033.03 ± 0.36 | 1029.25 ± 0.37 | 1025.52 ± 0.38 | 1021.77 ± 0.39
x1 = 0.1881 | 1043.47 ± 0.34 | 1039.69 ± 0.35 | 1035.91 ± 0.36 | 1032.11 ± 0.37 | 1028.33 ± 0.38 | 1024.51 ± 0.39
x1 = 0.2649 | 1047.35 ± 0.33 | 1043.5 ± 0.34 | 1039.65 ± 0.35 | 1035.85 ± 0.36 | 1032.01 ± 0.37 | 1028.19 ± 0.38
x1 = 0.3409 | 1051.67 ± 0.33 | 1047.79 ± 0.34 | 1043.96 ± 0.35 | 1040.09 ± 0.36 | 1036.22 ± 0.37 | 1032.37 ± 0.38
x1 = 0.3904 | 1054.79 ± 0.33 | 1050.91 ± 0.34 | 1047.02 ± 0.35 | 1043.15 ± 0.36 | 1039.28 ± 0.37 | 1035.44 ± 0.38
x1 = 0.4478 | 1058.92 ± 0.32 | 1055.02 ± 0.33 | 1051.08 ± 0.34 | 1047.15 ± 0.35 | 1043.24 ± 0.36 | 1039.31 ± 0.37
x1 = 0.4936 | 1062.42 ± 0.32 | 1058.49 ± 0.33 | 1054.56 ± 0.34 | 1050.68 ± 0.35 | 1046.76 ± 0.36 | 1042.86 ± 0.37
x1 = 0.5578 | 1068.01 ± 0.32 | 1064.07 ± 0.33 | 1060.1 ± 0.34 | 1056.12 ± 0.35 | 1052.18 ± 0.36 | 1048.22 ± 0.37
x1 = 0.6262 | 1074.52 ± 0.32 | 1070.55 ± 0.33 | 1066.6 ± 0.34 | 1062.64 ± 0.35 | 1058.66 ± 0.36 | 1054.73 ± 0.37
x1 = 0.6838 | 1080.96 ± 0.32 | 1076.95 ± 0.33 | 1072.95 ± 0.34 | 1068.91 ± 0.35 | 1064.9 ± 0.36 | 1060.87 ± 0.37
x1 = 0.7544 | 1089.83 ± 0.32 | 1085.77 ± 0.33 | 1081.67 ± 0.34 | 1077.58 ± 0.35 | 1073.51 ± 0.36 | 1069.44 ± 0.37
x1 = 0.8295 | 1100.75 ± 0.32 | 1096.63 ± 0.33 | 1092.5 ± 0.34 | 1088.36 ± 0.35 | 1084.26 ± 0.36 | 1080.16 ± 0.37
x1 = 0.8818 | 1109.7 ± 0.32 | 1105.53 ± 0.33 | 1101.4 ± 0.34 | 1097.27 ± 0.35 | 1093.1 ± 0.36 | 1088.94 ± 0.37
x1 = 0.9392 | 1120.57 ± 0.32 | 1116.44 ± 0.33 | 1112.31 ± 0.34 | 1108.16 ± 0.35 | 1104.04 ± 0.36 | 1099.88 ± 0.37
x1 = 1 | 1133 ± 0.32 | 1129 ± 0.33 | 1125 ± 0.34 | 1121 ± 0.35 | 1117 ± 0.36 | 1113 ± 0.37

CCCO [propan-1-ol] + NC=O
x2 = 0
Conditions | mass density [kg/m3]
293.15 K | 803.71 ± 0.21
298.15 K | 799.74 ± 0.22
303.15 K | 795.77 ± 0.23
308.15 K | 791.8 ± 0.24
313.15 K | 787.83 ± 0.25
318.15 K | 783.86 ± 0.26

NC=O [formamide] + CCCO
mass density
Conditions | 293.15 K | 298.15 K | 303.15 K | 308.15 K | 313.15 K | 318.15 K
x1 = 0.0557 | 814.02 ± 0.22 kg/m3 | 810.06 ± 0.22 kg/m3 | 806.09 ± 0.23 kg/m3 | 802.16 ± 0.24 kg/m3 | 798.22 ± 0.25 kg/m3 | 794.25 ± 0.26 kg/m3
x1 = 0.1172 | 826.05 ± 0.22 kg/m3 | 822.13 ± 0.23 kg/m3 | 818.2 ± 0.24 kg/m3 | 814.24 ± 0.25 kg/m3 | 810.33 ± 0.26 kg/m3 | 806.4 ± 0.27 kg/m3
x1 = 0.1854 | 840.26 ± 0.23 kg/m3 | 836.35 ± 0.23 kg/m3 | 832.44 ± 0.24 kg/m3 | 828.51 ± 0.25 kg/m3 | 824.6 ± 0.26 kg/m3 | 820.65 ± 0.27 kg/m3
x1 = 0.2615 | 857.42 ± 0.23 kg/m3 | 853.48 ± 0.24 kg/m3 | 849.54 ± 0.25 kg/m3 | 845.65 ± 0.26 kg/m3 | 841.72 ± 0.27 kg/m3 | 837.81 ± 0.28 kg/m3
x1 = 0.3469 | 878.23 ± 0.24 kg/m3 | 874.3 ± 0.25 kg/m3 | 870.42 ± 0.26 kg/m3 | 866.5 ± 0.27 kg/m3 | 862.58 ± 0.28 kg/m3 | 858.68 ± 0.29 kg/m3
x1 = 0.3912 | 889.89 ± 0.24 kg/m3 | 885.98 ± 0.25 kg/m3 | 882.06 ± 0.26 kg/m3 | 878.16 ± 0.27 kg/m3 | 874.26 ± 0.28 kg/m3 | 870.36 ± 0.29 kg/m3
x1 = 0.4434 | 904.36 ± 0.25 kg/m3 | 900.47 ± 0.26 kg/m3 | 896.54 ± 0.27 kg/m3 | 892.62 ± 0.28 kg/m3 | 888.72 ± 0.29 kg/m3 | 884.8 ± 0.3 kg/m3
x1 = 0.4986 | 920.67 ± 0.25 kg/m3 | 916.75 ± 0.26 kg/m3 | 912.83 ± 0.27 kg/m3 | 908.96 ± 0.28 kg/m3 | 905.05 ± 0.29 kg/m3 | 901.16 ± 0.3 kg/m3
x1 = 0.5534 | 937.91 ± 0.26 kg/m3 | 934.03 ± 0.27 kg/m3 | 930.12 ± 0.28 kg/m3 | 926.2 ± 0.29 kg/m3 | 922.32 ± 0.3 kg/m3 | 918.42 ± 0.31 kg/m3
x1 = 0.6216 | 961.03 ± 0.27 kg/m3 | 957.12 ± 0.28 kg/m3 | 953.23 ± 0.29 kg/m3 | 949.33 ± 0.3 kg/m3 | 945.41 ± 0.31 kg/m3 | 941.54 ± 0.32 kg/m3
x1 = 0.68 | 982.32 ± 0.28 kg/m3 | 978.44 ± 0.29 kg/m3 | 974.57 ± 0.3 kg/m3 | 970.66 ± 0.31 kg/m3 | 966.78 ± 0.32 kg/m3 | 962.88 ± 0.32 kg/m3
x1 = 0.7535 | 1011.59 ± 0.29 kg/m3 | 1007.72 ± 0.3 kg/m3 | 1003.81 ± 0.31 kg/m3 | 999.91 ± 0.32 kg/m3 | 996.03 ± 0.33 kg/m3 | 992.15 ± 0.34 kg/m3
x1 = 0.827 | 1043.7 ± 0.3 kg/m3 | 1039.83 ± 0.31 kg/m3 | 1035.95 ± 0.32 kg/m3 | 1032.06 ± 0.33 kg/m3 | 1028.21 ± 0.34 kg/m3 | 1024.36 ± 0.35 kg/m3
x1 = 0.8832 | 1070.44 ± 0.31 kg/m3 | 1066.54 ± 0.32 kg/m3 | 1062.68 ± 0.33 kg/m3 | 1058.82 ± 0.34 kg/m3 | 1054.92 ± 0.35 kg/m3 | 1051.03 ± 0.36 kg/m3
x1 = 0.9328 | 1095.56 ± 0.32 kg/m3 | 1091.65 ± 0.33 kg/m3 | 1087.74 ± 0.34 kg/m3 | 1083.81 ± 0.35 kg/m3 | 1079.91 ± 0.36 kg/m3 | 1075.97 ± 0.37 kg/m3
x1 = 1 | – | 1133 ± 0.34 kg/m3 and 1129 ± 0.33 kg/m3 | 1125 ± 0.34 kg/m3 | 1121 ± 0.35 kg/m3 | 1117 ± 0.36 kg/m3 | 1113 ± 0.37 kg/m3

OCCO [1,2-ethanediol] + NC=O
x2 = 0
Conditions | mass density [kg/m3]
293.15 K | 1113.57 ± 0.33
303.15 K | 1106.51 ± 0.35
313.15 K | 1099.45 ± 0.37

CC(O)CO (configuration not stated) [1,2-propanediol] + NC=O
x2 = 0
Conditions | mass density [kg/m3]
293.15 K | 1036.38 ± 0.35
298.15 K | 1032.76 ± 0.36
303.15 K | 1029.14 ± 0.37
308.15 K | 1025.52 ± 0.38
313.15 K | 1021.9 ± 0.39
318.15 K | 1018.28 ± 0.4

Source: the NIST ThermoML archive (doi:10.1016/j.jct.2006.07.021)
